Data: PMC12203428, “Discovery of Clonixeril as a Sub-Femtomolar Modulator of the Human STING Receptor” (ACS Central Science, 2025)
Entries after “also recorded” stand apart in the source; their conditions may differ. Like-named read-outs stand apart in the source and are kept apart here.

How the values were obtained:
inflammation in rats = tested on: inflammation in rats; set-up: method as in not given; conditions: 30–300 mg/kg, ref not given, cited from earlier work
[1] = tested on: hSTING WT pathway (THP1 Dual KI-hSTING-R232 cells, IRF3 luciferase reporter); test: THP-1 IRF3 luciferase reporter assay, clonixeril as agonist
Description: 2 Luciferase assay utilizing monocytic leukemia (THP-1) cells. Cells (Invivogen THP1 Dual KI-hSTING-R232; wild type) were analyzed for activation of the hSTING WT pathway via an IRF3 luciferase reporter. Luminescence is reported in relative luminescence units (RLU). Error bars are SEM A. Dose–response of THP-1 cells treated with various concentrations of clonixeril (CXL); N = 6.
A 10 mM stock solution of CXL in 100% DMSO was diluted with ultrapure Milli Q water to make 3, 5, 10, 15, 20, 30, 40, 50 μM samples. The vehicle control contained blank cell medium treated with 0.1% DMSO. 20 μL sample/well of CXL or dilute DMSO (vehicle control) was added to a white, 300 μL, sterile 96 well plate. […] All samples contained a final DMSO concentration of 0.1%. […] The expression of Lucia luciferase was quantified by measuring the luminescence and evaluated in triplicate. Data are average luminescence changes shown as relative luminescence after subtraction of the background luminescence of vehicle-treated cells. A Glowmax luminometer with an injector was used for the measurement of luminescence in the luciferase assay. After the 10h incubation period, 20 μL/well of cell culture supernatant was transferred to a fresh well plate. A single injector added 50 μL of detection reagent per well, and immediately measured luminescence using a 4s incubation time integrated over 1 s.

SUMO-hSTING CTD [2] = target: T1, SUMO-hSTING CTD (Homo sapiens, UniProt Q86WV6, H232R); test: Dynamic light scattering of STING oligomerization
T1 sequence (Q86WV6 155-343 H232R): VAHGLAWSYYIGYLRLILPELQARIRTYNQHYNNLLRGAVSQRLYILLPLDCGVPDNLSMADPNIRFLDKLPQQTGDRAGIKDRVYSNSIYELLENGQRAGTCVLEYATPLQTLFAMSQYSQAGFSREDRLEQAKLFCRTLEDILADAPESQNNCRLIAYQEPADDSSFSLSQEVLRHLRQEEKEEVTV
Description: (B) DLS was performed for 2 h (n = 960 measurements) with 50 nM STING exposed to analytes. […] Blue blocks indicate size counts as a percentage to overall mass over selected mass ranges. […] Measurements were made using a Malvern Zetasizer Nano ZS set to 40 measurements at 1 s/measurement and 24 runs.

hSTING = hSTING (Homo sapiens, UniProt Q86WV6, H232R); test: Summary of interaction of CXL with hSTING in vitro and in cellulo; conditions: read-out: EC50, first mode of interaction with hSTING
[3] = tested on: p-IRF3 in HEK293S cells (hSTING pathway); test: Phospho-IRF3 Western blot in HEK293S cells with diABZI3; assay type: cell-based, human; conditions: 100 fM compound, 100 nM diABZI3, preliminary
Description: HEK293T cells transfected with hSTINGWT cells were seeded in a 6-well plate in DMEM
(supplemented with 10% heat-inactivated fetal bovine serum, 1X Corning Penicillin-Streptomycin
solution and 0.01mg/mL Blasticidin). Upon reaching ~80% confluence, cells were pretreated with
varying concentrations of CXL in FBS-free DMEM for 2 hours. This was followed by treatment
with diABZI3 (100nM) for 1 hour. The cells were scraped, harvested by centrifugation at 1000 x g
for 3 mins. The resulting pellet is resuspended in 1X PBS with 1X Halt protease & phosphatase
inhibitor and 1% NP-40. Cell lysis was performed by probe sonication. The cell lysate is further
denatured in 1X SDS loading buffer by boiling for 10 mins and separated by SDS-PAGE (4-20%
gel). The separated proteins were electrically transferred to a PVDF membranes separately,
which was probed with primary (α-pIRF3, α-IRF3 & α-STING) and secondary (goat anti-rabbit IR
dye 680 & goat anti-mouse IR dye 800CW) antibodies. The blots were visualized using a LICOR
Image Analyzer. All the experiments were performed at least in duplicate.

[4] = target: T2, hSTING CTD (STING R232 variant) (Homo sapiens, UniProt Q86WV6, H232R); test: Microscale thermophoresis; assay type: binding; conditions: Log inhibitor versus response fit
T2 construct: 6X-His tagged hSTING^WT, R232 variant, CTD protein was purchased; purchased Invivogen (USA) or Cayman Chemicals (USA)
T2 sequence (Q86WV6 153-340 H232R): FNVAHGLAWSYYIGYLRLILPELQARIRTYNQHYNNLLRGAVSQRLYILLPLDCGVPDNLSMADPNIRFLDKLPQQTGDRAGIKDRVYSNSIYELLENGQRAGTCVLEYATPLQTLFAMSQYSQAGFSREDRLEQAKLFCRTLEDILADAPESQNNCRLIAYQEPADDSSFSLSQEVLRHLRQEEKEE
Description: Small molecule affinities at subpicomolar concentrations are typically difficult to determine by MST due to the inability of the detector to measure differential movement of proteins when largely disproportionate ratios of protein to ligand are involved. […] Generally, an IC50 correlates well with a K D when a small molecule competes for binding with a natural substrate for a target protein.
The resulting mixture was centrifuged at 12,000 x RPM 10 min prior to use. […] The samples were run again at 30- and 45 min. Detection of the protein was performed using the blue detection channel with excitation power set to 100% and MST set to high allowing 3 s prior to MST on to check for initial fluorescence differences, 35 s for thermophoresis, and 3 s for regeneration after MST off. Analysis was performed using M.O. Affinity Analysis Software with difference between initial fluorescence measured in the first 5 s as compared with thermophoresis at 30 s at 16 different analyte concentrations ranging from 100 μM to 100 zM and exported into Graphpad Prism v.8 using a Log inhibitor versus response for parameter fit.

SUMO-hSTING CTD [5] = target: T1, SUMO-hSTING CTD; test: Isothermal titration calorimetry; assay type: binding; set-up: human STING (amino acid 155–343) was synthesized and subcloned into pET28a vector; made in house; host or cells: E. coli BL21(DE3)
Text: In order to further explore the interaction between CXL and hSTING CTD, we employed Isothermal calorimetry (ITC) to measure the heat evolved accompanying CXL’s effect on SUMO-hSTING^WT CTD. […] In Figure A, we show the ITC data we obtained. […]. […] In Figure B, we also find that the binding isotherm is far from steady state or equilibrium, and thus, we could not obtain reliable thermodynamic parameters. Nonetheless, a significant amount of heat was released in the process of CXL interacting with the hSTING CTD. On the other hand, we were most interested in ITC measurements taken at femtomolar concentrations, given the biophysical experiments and in cellulo studies already described. Initial experiments treating the hSTING CTD with femtomolar concentrations of CXL were unsuccessful, likely due to the insensitivity of the instrument. […]. MicroCal ITC200 instrument (Malvern Pananalytical) was used to assess STING and CXL interactions. Both recombinantly purified STING domains (residues 155–343) containing a SUMO tag and CXL were buffer-exchanged and made in the same buffer composition, respectively, to avoid buffer mismatch. The same buffer cocktail was used in all ITC experiments, containing 25 mM HEPES (pH, 7.4), 150 mM NaCl, 5% glycerol, 0.5 mM TCEP, and 5% DMSO. STING protein from −80 °C aliquots was spun down at 12,000 RPM for 5–10 min before each run to remove any aggregates, diluted into the ITC buffer above (either as 40 μM STING alone or as 40 μM STING plus 20 μM 2,3-cGAMP), and loaded into the cell. CXL at various concentrations for different experiments was loaded into the syringe (Hamilton). For the control and reference, an ITC buffer devoid of CXL was used. ITC experiments were conducted at 25 °C using an initial 0.4 μL injection and 19 subsequent injections of 2 μL each at 150 s intervals. Heat of dilution (differential power) of the 19 injections resulting from the binding event was fitted into the nonlinear least-squares equation incorporated in the MicroCal ITC200 analysis software. The K D and other thermodynamic parameters were derived from curve fitting using MicroCal software.

[6] = tested on: hSTING WT pathway (THP1 Dual KI-hSTING-R232 cells, IRF3 luciferase reporter)
Description: 2 Luciferase assay utilizing monocytic leukemia (THP-1) cells. Cells (Invivogen THP1 Dual KI-hSTING-R232; wild type) were analyzed for activation of the hSTING WT pathway via an IRF3 luciferase reporter. Luminescence is reported in relative luminescence units (RLU).
A study was performed to determine that five hundred thousand cells/mL was the optimal cell density. An optimization study was performed to determine the maximum DMSO percentage so as not to impact the viability of the cells. […] The chosen concentration was 4 μM. The cells were tested with lipofectamine and compared to wells prepared without lipofectamine.

EC50 ([1]; Homo sapiens, THP1-Dual KI-hSTING-R232, read-out: EC50 (agonist activity), CXL alone, THP-1 cells, Figure 2A): ~19 µM | EC50 ([1]; read-out: EC50 (agonist activity), CXL alone, THP-1 cells, Figure 2A): 20 µM | Lowest concentration at which effect on oligomerization is observed (SUMO-hSTING CTD [2]; 50 nM STING, 50 nM 2′,3′-cGAMP): 100 aM | SUMO-hSTING CTD oligomerization without 2′,3′-cGAMP present (SUMO-hSTING CTD [2]; 50 nM STING, analyte alone): moderate amount of oligomerization | Size of protein aggregates (SUMO-hSTING CTD [2]; 100 aM, 50 nM STING CTD, reviewer's reading): about 75 nm | EC50 (hSTING): > 0.001 µM | Hillslope (MST fit) [4]: −1.669 | Heat released per injection (SUMO-hSTING CTD [5]; 400 μM clonixeril + 20 μM 2′,3′-cGAMP, reviewer's reading of Fig 6C): 13 kcal/mol | Heat evolution (SUMO-hSTING CTD [5]; 1.5 fM CXL into 40 μM SUMO-hSTING CTD + 20 μM 2′,3′-cGAMP): significant evolution of heat | Heat released per injection (SUMO-hSTING CTD [5]; 1.5 fM clonixeril into 40 μM hSTING CTD + 20 μM 2′,3′-cGAMP, first 15 injections): -7 to -2 kcal/mol
Structure (SMILES): Cc1c(Cl)cccc1Nc1ncccc1C(=O)OCC(O)CO (stereo not drawn) [CXL, clonixeril]
Ulcerogenic effects (inflammation in rats): without producing significant ulcerogenic effects | Anti-inflammatory effect (inflammation in rats; oral): anti-inflammatory effects | Agonist activity in luciferase reporter assay ([1]; compound alone): weak agonist activity | Reduction in 2′,3′-cGAMP driven SUMO-hSTING CTD oligomerization (SUMO-hSTING CTD [2]; 50 nM STING, 50 nM 2′,3′-cGAMP): alters the ability of SUMO-hSTING CTD to oligomerize | Effect on p-IRF3 [3]: potent antagonistic behavior | Heat produced (SUMO-hSTING CTD [5]; 400 μM CXL into 40 μM hSTING CTD): essentially the same amount of heat as c-diGMP | Antagonism of hSTING pathway in luciferase reporter assay ([6]; compound 1 h, then 4 μM 2′,3′-cGAMP): inverse dose response; also recorded: antagonism of the hSTING^WT pathway | Concentration of maximum inhibition ([6]; reviewer's summary of IRF3 reporter assay): 100 aM
